A short description of data set [1]: Metabolic stability with human liver microsomes and NADPH. In kind it is in vitro ADME. The settings on record: liver microsomes, pH 7.4, human liver microsomes 0.5 mg/mL, 1 mM NADPH, 10 μM compound, pH 7.4, 37 °C, up to 60 min, read-out: In Vitro Metabolic Half-Life t1/2. As to the method:
Stock solutions of studied compounds were prepared at concentration of 10 mM in DMSO. […] Incubation mixture contained 10 μM of a studied derivative, 1 mM of NADPH (Sigma-Aldrich) and 0.5 mg/mL of human liver microsomes (HLM, Sigma-Aldrich) in potassium phosphate buffer (0.1 M, pH 7.4). Incubation was carried out in thermostat at 37 °C and started by addition of studied compound. 50 μL samples were taken after 5, 15, 30, 45 and 60 min. Enzymatic reaction was terminated by the addition of the equal volume of ice-cold acetonitrile containing 10 μM of alprazolam (Sigma-Aldrich) serving as internal standard (IS). Control incubations were performed without NADPH to assess chemical instability. After collection, samples were immediately centrifuged (10 min, 10,000 rpm) and resulted supernatant was directly analyzed or kept in −80 °C until LC-MS analysis. Natural logarithm of a compound over IS peak area ratio was plotted versus incubation time. Metabolic half-time (t1/2) was calculated from the slope of the linear regression, as reported in [48].
LC-MS analysis was performed on an Agilent 1260 system coupled to SingleQuad 6120 mass spectrometer (Agilent Technologies, Santa Clara, CA, USA). Ascentis Express ES-CN (2.1 mm × 100 mm, 2.7 μm, Supelco Analytical, Bellefonte, PA, USA) was used in reversed-phase mode with gradient elution starting with 50% of phase A (10 mM ammonium formate in water) and 50% of phase B (10 mM ammonium formate in acetonitrile-water mixture, 95:5 v/v). […] Total analysis time was 10 min at 25 °C, flow rate was 0.4 mL/min and the injection volume was 20 μL. The mass spectrometer was equipped with electrospray ion source and operated in positive ionization. Mass analyzer was set individually to each compound to detect [M + H]^+ pseudomolecular ions. MSD parameters of the ESI source were as follows: nebulizer pressure 50 psig (N2), drying gas […] (N2), drying gas temperature 300 °C, capillary voltage 3.5 kV, fragmentor voltage 100 V.

Data set [2] concerns HeLa. In words: Cell cycle analysis (sub-G1, DAPI flow cytometry), HeLa. The settings on record: 24 h, dose dependent increase, mean ± SD. In kind it is cell-based, human. The procedure:
One of the most common mechanisms in anticancer drug treatment is changes in cell cycle, which can be measured by DNA content. Cell cycle distribution in HCT-116, HeLa and MCF-7 cells was examined to determine cycle arrest and/or presence of sub-G1 after treatment with compounds 37 and 46. […] Cell populations data are expressed as the mean ± SD of at least three independent experiments.
Following treatment, cells were fixed in cold 70% ethanol for 30 min. Fixed cells were stained for 15 min in buffer containing 500 μg/mL RNAse A (EURx, Gdansk, Poland) and 2.5 μg/mL of DAPI (Sigma-Aldrich, Munich, Germany). The fluorescence of DAPI was measured at 440 ± 40 nm with a flow cytometer (LSR II, BD Biosciences, Mountain View, CA, USA). Each experiment was performed at least in triplicate. Data were analyzed off-line using the BD FACSDiva (BD Biosciences).

The subject of data set [3] is HeLa. In words: Mitochondrial membrane potential (JC-1), HeLa. In kind it is cell-based, human. The settings on record: 24 h, low and moderate concentrations. The procedure:
Loss of the mitochondrial membrane potential (Δψm) is one of the earliest indicators of an apoptosis. It can be detected using fluorescent dye JC-1 (5,5′,6,6′-tetrachloro-1,1′,3,3′-tetraethylbenzimidazolylcarbocyanine iodide) exited with blue laser. JC-1 spontaneously forms dimer complexes (J aggregates) with red fluorescent or remain as a monomers with green fluorescence in cells with high and low Δψm, respectively.
Half an hour before the end of 24 h-treatment 2.5 μg/mL of JC-1 (5,5′,6,6′-tetrachloro-1,1′,3,3′-tetraethylbenzimidazolylcarbocyanine iodide) was added to the cell medium. As a negative control 100 μM CCCP (carbonyl cyanide 3-chlorophenylhydrazone) was used 15 min before JC-1 treatment. Following treatment cells were twice washed with PBS and analyzed with flow cytometer (LSR II, BD Biosciences).
Green and red fluorescence were observed using FL-1 (530 ± 30 nm) and FL-2 (585 ± 42 nm) channels, respectively. Percentage of cell population in red or green fluorescence gate indicated the level of Δψm. Decreasing red fluorescence cell population indicated lower Δψm.

In data set [4] the test system is HeLa. In words: Cell morphology (light microscope), HeLa. In kind it is cell-based, human. The settings on record: 25–100 μM, 24 h. The procedure:
(§1) To evaluate the changes in morphology of the treated cells, they were incubated with increasing concentrations of 37 (HCT-116, HeLa) or 46 (MCF-7) for 24 h and observed using light microscope.
(§2) The HCT-116, HeLa and MCF-7cells were seeded on 24-well plates (5 × 10^4/per well) in 300 μL of medium and incubated with 37 (HCT-116, HeLa) or 46 (MCF-7) for 24 h. Cells incubated with increasing concentrations of compounds (25–100 μM) were observed after 24 h using light microscope Axiovert 200 (Zeiss, Oberkochen, Germany).

A further data set concerns MCF-7 (breast cancer). In words: MTT cell viability assay, MCF-7. In kind it is cell-based, human. The following applies: Homo sapiens, MCF7, 72 h of incubation, mean ± SD. The procedure, abridged: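 Cells were seeded at 5 × 10^3 cells/well and exposed for 72 h to compounds at 1, 10, 25, 50 and 100 μM, with DMSO stocks. MTT (0.5 mg/mL) was added for 2 h at 37 °C, and formazan absorbance was read at 550 nm. Values are mean ± SD of at least three independent triplicate experiments.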

For a further data set, the system named is HCT-116. Nature of the data set: Cell morphology (light microscope), HCT-116. In kind it is cell-based, human. The settings on record: HCT-116, 25–100 μM, 24 h. As to the method: as §1, §2

Data on one compound can be found in article PMC6273912, “Novel 5-Substituted 2-(Aylmethylthio)-4-chloro-N-(5-aryl-1,2,4-triazin-3-yl)benzenesulfonamides: Synthesis, Molecular Structure, Anticancer Activity, Apoptosis-Inducing Activity and Metabolic Stability” (Molecules, 2016).

For the compound `Cc1cc(S(=O)(=O)Nc2nncc(-c3ccc(C(F)(F)F)cc3)n2)c(SCc2cccc3ccccc23)cc1Cl` [Compound 37, 4-Chloro-5-methyl-2-[(naphthalene-1-yl)methylthio]-N-[5-(4-trifluoromethylphenyl)-1,2,4-triazin-3-yl]-benzenesulfonamide], in data set [1], the half-life at 10 μM was 32.8 min. Further, the Sub-G1 cell population in the data set on HeLa [2] is 21% ± 3.4%. The “effect on mitochondrial membrane potential (Δψm)” value in the data set on HeLa [3] is listed as “remarkably decreased Δψm”. Moreover, the morphological changes result in the data set on HeLa [4] is “shrinkage of the cells, detachment from the surface”; in the data set with HCT-116 it was “shrinkage of the cells, detachment from the surface”. The same compound had an IC50 in the data set on MCF-7 (breast cancer) of 70 ± 3 µM.
